Assay results reported in ChEMBL document CHEMBL4823305, “Design, synthesis and antibacterial evaluation of novel 3-O-substituted 15-membered azalides possessing 1,2,3-triazole side chains” (2021).
≈ marks a conversion by molar mass, not a printed value.

Experiments:
Assay type in all cases: functional
Klebsiella pneumoniae = assay: Antibacterial activity against Klebsiella pneumoniae ATCC10031 by broth microdilution method
Staphylococcus aureus [1] = assay: Antibacterial activity against methicillin-resistant Staphylococcus aureus ATCC43300 by broth microdilution method
Enterococcus faecium = assay: Antibacterial activity against clinical isolate erythromycin-resistant Enterococcus faecium by broth microdilution method
Staphylococcus aureus [2] = assay: Antibacterial activity against erythromycin-susceptible Staphylococcus aureus ATCC25923 by broth microdilution method
Enterococcus faecalis = assay: Antibacterial activity against vancomycin-susceptible Enterococcus faecalis ATCC29212 by broth microdilution method
Staphylococcus aureus [3] = assay: Antibacterial activity against penicillin-resistant Staphylococcus aureus by broth microdilution method
Bacillus subtilis = assay: Antibacterial activity against penicillin-susceptible Bacillus subtilis ATCC9372 by broth microdilution method

Row | Compound | MIC (Klebsiella pneumoniae) [µg/mL] | MIC (Staphylococcus aureus [1]) [µg/mL] | MIC (Enterococcus faecium) [µg/mL] | MIC (Staphylococcus aureus [2]) [µg/mL] | MIC (Enterococcus faecalis) [µg/mL] | MIC (Staphylococcus aureus [3]) [µg/mL] | MIC (Bacillus subtilis) [µg/mL]
1 | CC[C@H]1OC(=O)[C@H](C)[C@@H](OC(=O)NNC(=O)Cn2cc(-c3ccc(Br)cc3)nn2)[C@H](C)[C@@H](O[C@@H]2O[C@H](C)C[C@H](N(C)C)[C@H]2O)[C@](C)(O)C[C@@H](C)CN(C)[C@H](C)[C@H]2OC(=O)O[C@@]21C | 64 (≈ 68.2 µM) | 64 (≈ 68.2 µM) | 64 (≈ 68.2 µM) | 32 (≈ 34.1 µM) | 32 (≈ 34.1 µM) | 128 (≈ 136 µM) | 32 (≈ 34.1 µM)
2 | CC[C@H]1OC(=O)[C@H](C)[C@@H](OC(=O)NNC(=O)Cn2cc(-c3cccc(Cl)c3)nn2)[C@H](C)[C@@H](O[C@@H]2O[C@H](C)C[C@H](N(C)C)[C@H]2O)[C@](C)(O)C[C@@H](C)CN(C)[C@H](C)[C@H]2OC(=O)O[C@@]21C | 16 (≈ 17.9 µM) | 128 (≈ 143 µM) | 64 (≈ 71.6 µM) | 64 (≈ 71.6 µM) | 16 (≈ 17.9 µM) | 256 (≈ 286 µM) | 64 (≈ 71.6 µM)
3 | CC[C@H]1OC(=O)[C@H](C)[C@@H](OC(=O)NNC(=O)Cn2cc(-c3ccccc3OC)nn2)[C@H](C)[C@@H](O[C@@H]2O[C@H](C)C[C@H](N(C)C)[C@H]2O)[C@](C)(O)C[C@@H](C)CN(C)[C@H](C)[C@H]2OC(=O)O[C@@]21C | 64 (≈ 71.9 µM) | 256 (≈ 288 µM) | 128 (≈ 144 µM) | 64 (≈ 71.9 µM) | 64 (≈ 71.9 µM) | 256 (≈ 288 µM) | 128 (≈ 144 µM)
4 | CCOc1ccc(-c2cn(CC(=O)NNC(=O)O[C@H]3[C@H](C)[C@@H](O[C@@H]4O[C@H](C)C[C@H](N(C)C)[C@H]4O)[C@](C)(O)C[C@@H](C)CN(C)[C@H](C)[C@H]4OC(=O)O[C@]4(C)[C@@H](CC)OC(=O)[C@@H]3C)nn2)cc1 | 32 (≈ 35.4 µM) | 128 (≈ 142 µM) | 128 (≈ 142 µM) | 32 (≈ 35.4 µM) | 16 (≈ 17.7 µM) | 128 (≈ 142 µM) | 64 (≈ 70.8 µM)
5 | CC[C@H]1OC(=O)[C@H](C)[C@@H](OC(=O)NNC(=O)Cn2cc(-c3cccc(N)c3)nn2)[C@H](C)[C@@H](O[C@@H]2O[C@H](C)C[C@H](N(C)C)[C@H]2O)[C@](C)(O)C[C@@H](C)CN(C)[C@H](C)[C@H]2OC(=O)O[C@@]21C | 128 (≈ 146 µM) | > 256 | 128 (≈ 146 µM) | 128 (≈ 146 µM) | > 128 | > 256 | > 128
6 | CC[C@H]1OC(=O)[C@H](C)[C@@H](O[C@H]2C[C@@](C)(OC)[C@@H](O)[C@H](C)O2)[C@H](C)[C@@H](O[C@@H]2O[C@H](C)C[C@H](N(C)C)[C@H]2O)[C@](C)(OC)C[C@@H](C)C(=O)[C@H](C)[C@@H](O)[C@]1(C)O [CLARITHROMYCIN] | 4 (≈ 5.35 µM) | > 256 | 256 (≈ 342 µM) | < 0.25 | 1 (≈ 1.34 µM) | > 256 | < 0.25
7 | CCc1ccc(-c2cn(CC(=O)NNC(=O)O[C@H]3[C@H](C)[C@@H](O[C@@H]4O[C@H](C)C[C@H](N(C)C)[C@H]4O)[C@](C)(O)C[C@@H](C)CN(C)[C@H](C)[C@H]4OC(=O)O[C@]4(C)[C@@H](CC)OC(=O)[C@@H]3C)nn2)cc1 | 16 (≈ 18 µM) | 64 (≈ 72.1 µM) | 32 (≈ 36 µM) | 16 (≈ 18 µM) | 32 (≈ 36 µM) | 64 (≈ 72.1 µM) | 32 (≈ 36 µM)
8 | CC[C@H]1OC(=O)[C@H](C)[C@@H](OC(=O)NNC(=O)Cn2cc(-c3cccc(Br)c3)nn2)[C@H](C)[C@@H](O[C@@H]2O[C@H](C)C[C@H](N(C)C)[C@H]2O)[C@](C)(O)C[C@@H](C)CN(C)[C@H](C)[C@H]2OC(=O)O[C@@]21C | 32 (≈ 34.1 µM) | 128 (≈ 136 µM) | 128 (≈ 136 µM) | 64 (≈ 68.2 µM) | 32 (≈ 34.1 µM) | 256 (≈ 273 µM) | 64 (≈ 68.2 µM)
9 | CC[C@H]1OC(=O)[C@H](C)[C@@H](O[C@H]2C[C@@](C)(OC)[C@@H](O)[C@H](C)O2)[C@H](C)[C@@H](O[C@@H]2O[C@H](C)C[C@H](N(C)C)[C@H]2O)[C@](C)(O)C[C@@H](C)CN(C)[C@H](C)[C@@H](O)[C@]1(C)O [AZITHROMYCIN] | 2 (≈ 2.67 µM) | > 256 | 256 (≈ 342 µM) | < 0.25 | 4 (≈ 5.34 µM) | > 256 | < 0.25
10 | CC[C@H]1OC(=O)[C@H](C)[C@@H](OC(=O)NNC(=O)Cn2cc(-c3ccc(OC)cc3)nn2)[C@H](C)[C@@H](O[C@@H]2O[C@H](C)C[C@H](N(C)C)[C@H]2O)[C@](C)(O)C[C@@H](C)CN(C)[C@H](C)[C@H]2OC(=O)O[C@@]21C | 32 (≈ 36 µM) | 256 (≈ 288 µM) | 128 (≈ 144 µM) | 64 (≈ 71.9 µM) | 64 (≈ 71.9 µM) | 256 (≈ 288 µM) | 128 (≈ 144 µM)
11 | CCCc1ccc(-c2cn(CC(=O)NNC(=O)O[C@H]3[C@H](C)[C@@H](O[C@@H]4O[C@H](C)C[C@H](N(C)C)[C@H]4O)[C@](C)(O)C[C@@H](C)CN(C)[C@H](C)[C@H]4OC(=O)O[C@]4(C)[C@@H](CC)OC(=O)[C@@H]3C)nn2)cc1 | 16 (≈ 17.7 µM) | 64 (≈ 70.9 µM) | 32 (≈ 35.5 µM) | 16 (≈ 17.7 µM) | 8 (≈ 8.87 µM) | 64 (≈ 70.9 µM) | 16 (≈ 17.7 µM)
12 | CC[C@H]1OC(=O)[C@H](C)[C@@H](OC(=O)NNC(=O)Cn2cc(-c3ccc(C)cc3)nn2)[C@H](C)[C@@H](O[C@@H]2O[C@H](C)C[C@H](N(C)C)[C@H]2O)[C@](C)(O)C[C@@H](C)CN(C)[C@H](C)[C@H]2OC(=O)O[C@@]21C | 16 (≈ 18.3 µM) | 256 (≈ 293 µM) | 64 (≈ 73.2 µM) | 32 (≈ 36.6 µM) | 32 (≈ 36.6 µM) | 256 (≈ 293 µM) | 64 (≈ 73.2 µM)
13 | CC[C@H]1OC(=O)[C@H](C)[C@@H](OC(=O)NNC(=O)Cn2cc(-c3cccc(C)c3)nn2)[C@H](C)[C@@H](O[C@@H]2O[C@H](C)C[C@H](N(C)C)[C@H]2O)[C@](C)(O)C[C@@H](C)CN(C)[C@H](C)[C@H]2OC(=O)O[C@@]21C | 16 (≈ 18.3 µM) | 128 (≈ 146 µM) | 128 (≈ 146 µM) | 64 (≈ 73.2 µM) | 32 (≈ 36.6 µM) | 256 (≈ 293 µM) | 64 (≈ 73.2 µM)
14 | CC[C@H]1OC(=O)[C@H](C)[C@@H](OC(=O)NNC(=O)Cn2cc(-c3ccccc3)nn2)[C@H](C)[C@@H](O[C@@H]2O[C@H](C)C[C@H](N(C)C)[C@H]2O)[C@](C)(O)C[C@@H](C)CN(C)[C@H](C)[C@H]2OC(=O)O[C@@]21C | 32 (≈ 37.2 µM) | 256 (≈ 298 µM) | 64 (≈ 74.4 µM) | 32 (≈ 37.2 µM) | 16 (≈ 18.6 µM) | 256 (≈ 298 µM) | 128 (≈ 149 µM)
15 | CC[C@H]1OC(=O)[C@H](C)[C@@H](OC(=O)NNC(=O)Cn2cc(-c3cccc(F)c3)nn2)[C@H](C)[C@@H](O[C@@H]2O[C@H](C)C[C@H](N(C)C)[C@H]2O)[C@](C)(O)C[C@@H](C)CN(C)[C@H](C)[C@H]2OC(=O)O[C@@]21C | 64 (≈ 72.9 µM) | 256 (≈ 292 µM) | 128 (≈ 146 µM) | 32 (≈ 36.4 µM) | 32 (≈ 36.4 µM) | 256 (≈ 292 µM) | 64 (≈ 72.9 µM)
16 | CCCOc1ccc(-c2cn(CC(=O)NNC(=O)O[C@H]3[C@H](C)[C@@H](O[C@@H]4O[C@H](C)C[C@H](N(C)C)[C@H]4O)[C@](C)(O)C[C@@H](C)CN(C)[C@H](C)[C@H]4OC(=O)O[C@]4(C)[C@@H](CC)OC(=O)[C@@H]3C)nn2)cc1 | 32 (≈ 34.9 µM) | 64 (≈ 69.7 µM) | 64 (≈ 69.7 µM) | 16 (≈ 17.4 µM) | 16 (≈ 17.4 µM) | 64 (≈ 69.7 µM) | 32 (≈ 34.9 µM)
17 | CC[C@H]1OC(=O)[C@H](C)[C@@H](OC(=O)NNC(=O)Cn2cc(-c3ccc(F)cc3)nn2)[C@H](C)[C@@H](O[C@@H]2O[C@H](C)C[C@H](N(C)C)[C@H]2O)[C@](C)(O)C[C@@H](C)CN(C)[C@H](C)[C@H]2OC(=O)O[C@@]21C | 64 (≈ 72.9 µM) | 256 (≈ 292 µM) | 128 (≈ 146 µM) | 64 (≈ 72.9 µM) | 32 (≈ 36.4 µM) | 128 (≈ 146 µM) | 64 (≈ 72.9 µM)
18 | CC[C@H]1OC(=O)[C@H](C)[C@@H](OC(=O)NNC(=O)Cn2cc(-c3ccccc3Cl)nn2)[C@H](C)[C@@H](O[C@@H]2O[C@H](C)C[C@H](N(C)C)[C@H]2O)[C@](C)(O)C[C@@H](C)CN(C)[C@H](C)[C@H]2OC(=O)O[C@@]21C | 32 (≈ 35.8 µM) | 128 (≈ 143 µM) | 64 (≈ 71.6 µM) | 32 (≈ 35.8 µM) | 64 (≈ 71.6 µM) | 256 (≈ 286 µM) | 64 (≈ 71.6 µM)
